Laboratory results reported in patent publication US20220226484A1, “THERAPEUTIC PEPTIDES” (COHBAR, INC., priority 2019, published 2022).
Positions of bridges follow the written chain, without caps; N, C: chain ends. Primed or numbered codes have the meaning given here. Chains are numbered I, II in the order given. No end group written: not given here. PEG12′ = not defined here

Legend:
human PC-3 tumor cells = test: Mouse PC-3 xenograft model of prostate cancer; type: in vivo; conditions: 5 mg/kg daily intraperitoneal
Description: Male BALB/c nude mice, 6-7 weeks of age, 20±2 g were inoculated subcutaneously in the right lower flank with a single volume of 0.1 ml of cell suspension containing about 1×10^7 human PC-3 tumor cells. Animals were weighed and randomized into treatment groups when the mean tumor size was around 130 mm^3. Groups of 10 animals received daily injections of test article (5 mg/kg) by intraperitoneal administration. Tumor size was measured twice per week in 2 dimensions using a calipers and tumor volume calculated by standard methods. The study was concluded on day 21 post initial-dosing (day 0).

[1] = system: Rat primary cortical neurons; test: Neuroprotection against Aβ (1-42) toxicity in cultured neurons; type: cell-based; conditions: 24 hours
Description: Rat primary cortical neurons were collected and cultured by methods well known in the art (Singer et al., 1999 and Callizot et al., 2013). The cells were seeded at a density of 25,000 per well in 96-well plates precoated with poly-L-lysine and cultured at 37° C. in an air (95%)-CO2 (5%) incubator. The medium was changed every 2 days. The cortical neurons were treated after 11 days of culture. The A13(1-42) was prepared using the procedure described by Callizot et al., 2013 to ensure monomeric peptide. Compounds and the positive control, BDNF (50 ng/ml), were dissolved in culture medium and then pre-incubated with primary cortical neurons for 1 hour before addition of A13(1-42) (20 μM). After 24 hours of treatment, the cell culture supernatant was removed and the cortical neurons were fixed by a cold solution of ethanol (95%) and acetic acid (5%) for 5 min at −20° C. After permeabilization with 0.1% of saponin, cells were incubated for 2 hours with mouse monoclonal antibody anti-microtubule-associated-protein 2 (MAP-2) at a dilution of 1/400 in PBS containing 1% fetal calf serum and 0.1% of saponin to stain cell bodies and neurites.
This antibody was detected with Alexa Fluor 488 goat anti-mouse IgG at the dilution 1/400 in PBS containing 1% FCS, 0.1% saponin, for 1 hour at room temperature. For each condition, images were obtained using ImageXpress (Molecular Devices) with 20× magnification. The total number of cells and extent of neurite network was determined using Custom Module Editor (Molecular Devices).

human lung fibroblasts = test: Fibroblast-to-myofibroblast transition assay, alpha smooth muscle actin expression; type: cell-based; conditions: 1.25 ng/ml TGF-β1, 72 hours
From the text: The effect of the peptides on fibrosis can be assessed in vitro using a fibroblast-to-myofibroblast transition (FMT) assay and monitoring alpha smooth muscle actin ([…]SMA) produced by cultured cells such as healthy primary human lung fibroblast cells. Assay performed by Charles River Discovery Research Services UK Limited (Essex, UK). Transforming growth factor beta-1 (TGF-β1) stimulated alpha smooth muscle actin (αSMA) expression in human lung fibroblasts derived from three healthy donors was used to assess anti-fibrotic activity. Peptides were prepared as 10 mM stock in DMSO and tested in eight (8)-step concentration response curves using 0.5 Log M dilution steps with 10 μM as highest concentration (0.1% DMSO final). Transforming Growth Factor beta (TGF-β1) was used as a potent inducer of FMT as measured by increased αSMA expression. Isolated lung fibroblasts were seeded in 96-well or 384-well PureCol coated plates. Five days post-seeding, medium was refreshed, and peptides, reference compounds, and controls are added to the cells. After one hour, 1.25 ng/ml TGF-β1 was added to induce FMT. Expression of αSMA was measured 72 hours later by immunostaining, assessed by high content imaging on an IN Cell Analyzer 2200 (GE Healthcare) and quantified using an in-house developed algorithm with the IN Cell developer software (GE Healthcare). The output of the algorithm represents the staining intensity multiplied by the stained area (DxA levels). Co-staining of cell nuclei with DAPI was performed to quantify cell number, a measure of potential toxicity. The αSMA expression levels observed using 0.1% DMSO (negative control) were used to calculate percentage inhibition of αSMA by each peptide.

[2] = system: bleomycin-induced lung fibrosis in male C57BL/6 mice; test: Therapeutic mouse model of idiopathic pulmonary fibrosis (bleomycin); type: in vivo; conditions: peptide 5 mg/kg/day intraperitoneal, nintedanib 60 mg/kg/day PO
From the text: The effect of the peptides on the progression of established lung fibrosis can be assessed by monitoring lung fibrosis, lung weight, inflammatory cells in bronchoalveolar lavage fluid (BALF), soluble collagen in BALF, and body weight change in a therapeutic mouse model of idiopathic pulmonary fibrosis. Lung fibrosis was induced in lungs of male C57BL/6 mice between the ages of 6 to 8 weeks by nasophayngeal administration of bleomycin (1.5 U/kg using bleomycin clinical formulation diluted in PBS). A control group of animals were administered saline by the nasopharyngeal route (no-bleomycin control group). After one week, bleomycin-treated animals were randomized to treatment groups (N=10 per group) by body weight and treated daily with vehicle control, nintedanib positive control (60 mg/kg/day PO) or peptide (5 mg/kg/day by intraperitoneal injection). After 14 days of treatment (Day 21), lungs were removed and weighed. The post-caval lobe was separated and snap frozen. The lungs were flushed with Hanks Buffer and bronchoalveolar lavage fluid (BALF) was harvested from each animal. Total BALF leukocyte were counted. Slides were prepared from the remaining BALF leukocytes, fixed and stained with May Geimsa stain and the differential counts were recorded manually. BALF was evaluated for soluble collagen using a Sircol assay. Lungs were fixed in 10% neutral buffered formalin (NBF) for histopathological analysis. Fibrosis was assessed by histopathological analysis of H&E stained mouse lungs using an Ashcroft scoring system.

[3] = system: DSS-induced colitis in female C57BL/6NTac mice; test: DSS-induced colitis mouse model of inflammatory bowel disease; type: in vivo; conditions: 3% DSS 8 days; peptides 10 mg/kg/day intraperitoneal; CsA 80 mg/kg/day oral; AUC over 8 days
Description: The effect of the peptides on inflammatory disease can be assessed by monitoring fecal blood, stool consistency, and body weight loss in a DSS-induced colitis mouse model. Colitis was induced in female C57BL/6NTac mice (9-11 weeks old) by continuous ad libitum oral administration of dextran sodium sulfate (DSS) 3% in sterile drinking water for 8 days. Control (No DSS) mice received sterile water instead of DSS solution. Peptides were administered intraperitoneally once daily at 10 mg/kg/day for 8 days in combination with oral DSS. […] Daily assessments included body weight loss score, fecal blood score, stool consistency score, and composite disease activity index (DAI) score, based on the first three parameters combined. Scores recorded on each day over 8 days were used to calculate area under the curve (AUC) values for each endpoint in individual animals.

[4] = system: RENCA cells (renal adenocarcinoma cell line); test: Tumor growth in RENCA syngeneic mouse model; type: in vivo; conditions: 10 mg/kg daily intraperitoneal, female BALB/c mice, 10 per group
Description: The effect of the peptides on tumor growth can be assessed by monitoring tumor volume in syngeneic mouse cancer models such as RENCA, a mouse tumor model using a renal adenocarcinoma cell line. RENCA cells were grown in culture. On Day 0, 1.0×10^6 cells in 100 μl PBS were implanted into the mammary fat pad of female BALB/c mice. […] Test peptides were administered daily at a dose of 10 mg/kg by intraperitoneal administration. Primary tumor volumes were determined by caliper measurements twice a week. The growth rate of each tumor was calculated as the percent of the mean tumor growth of tumors observed in the control vehicle-treated group, as determined on Day 20 of the study.

With RVIRMCLGVGLLGDLAG [SEQ ID NO: 3] as the substance, how does the “Mean Tumor Volume” value (human PC-3 tumor cells; Time 0 Days, N = 10) read?
Its value is 131 mm^3.

What about the “Mean Tumor Volume” value (human PC-3 tumor cells; Time 4 Days) of the same substance?
The value was 136 mm^3.

And the “Mean Tumor Volume” value (human PC-3 tumor cells; Time 7 Days)?
The value was 203 mm^3.

And the “Mean Tumor Volume” value (human PC-3 tumor cells; Time 11 Days)?
Its value is 270 mm^3.

And the “Mean Tumor Volume” value (human PC-3 tumor cells; Time 14 Days)?
Its value is 400 mm^3.

What about the “Mean Tumor Volume” value (human PC-3 tumor cells; Time 18 Days) of the same substance?
The value was 596 mm^3.

What about the “Mean Tumor Volume” value (human PC-3 tumor cells; Time 22 Days) of the same substance?
The value was 806 mm^3.

And the “Percent Protection of Neuronal Network” value ([1]; Aβ (1-42) 20 μM + peptide 100 nM)?
The value was 80%.

And the “Percent Protection of Neuronal Network” value ([1]; Aβ (1-42) 20 μM + peptide 10 uM)?
Its value is 81%.

“RVIRMCLGVGLLGDLAGK{PEG12} (chain 1 RVIRMCLGVGLLGDLAGK(PEG12′); chain 2 RVIRMCLGVGLLGDLAGK(PEG12′); disulfide I:6-II:6) [SEQ ID NO: 28]” was tested. Which “Mean Percent Inhibition of alpha-SMA Expression” value (“Mean Percent Inhibition” for short) (human lung fibroblasts; peptide 0.00316 μM) did it give?
The value was 6.25%.

What about the “Mean Percent Inhibition” value (human lung fibroblasts; peptide 0.01 μM) of the same substance?
Its value is 1.25%.

What about the “Mean Percent Inhibition” value (human lung fibroblasts; peptide 0.0316 μM) of the same substance?
Its value is −5.63%.

And the “Mean Percent Inhibition” value (human lung fibroblasts; peptide 0.1 μM)?
The value was −5.63%.

And the “Mean Percent Inhibition” value (human lung fibroblasts; peptide 0.316 μM)?
The value was 4.06%.

And the “Mean Percent Inhibition” value (human lung fibroblasts; peptide 1 μM)?
The value was 28.1%.

And the “Mean Percent Inhibition” value (human lung fibroblasts; peptide 3.16 μM)?
Its value is 81.6%.

And the “Mean Percent Inhibition” value (human lung fibroblasts; peptide 10 μM)?
Its value is 88.1%.

What about the “Mean (SEM) Leukocyte Count in BALF (Percent of Bleomycin Control)” value ([2]; Day 21, 14 days of treatment) of the same substance?
Its value is 72.2 (5.96) Percent.

And the “Mean (SEM) Lung Weight (Percent of Bleomycin Control)” value ([2]; Day 21, 14 days of treatment)?
Its value is 73.8 (3.13) Percent.

What about the “Mean (SEM) Percent Body Weight Change from Baseline” value ([2]; Day 21, 14 days of treatment) of the same substance?
The value was 2.71 (1.48) Percent.

And the “Mean (SEM) Collagen Content in BALF (Percent of Bleomycin Control)” value ([2]; Sircol assay, Day 21)?
The value was 49.6 (6.48) Percent.

What about the “Mean (SEM) Ashcroft Score (Percent of Bleomycin Control)” value ([2]; histopathology, Day 21) of the same substance?
The value was 80.73 (7.24) Percent.

And the “Mean (SEM) Body Weight Loss Score AUC” value [3]?
The value was 1.70 (0.63).

What about the “Mean (SEM) Composite Disease Activity Index (DAI) Score AUC” value [3] of the same substance?
The value was 16.6 (1.25).

What about the “Mean (SEM) Fecal Blood Score AUC” value [3] of the same substance?
The value was 10.3 (0.82).

And the “Mean (SEM) Stool Consistency Score AUC” value [3]?
Its value is 4.60 (0.74).

What about the “Mean (SEM) Percent of Control Group Tumor Growth at Day 20” value [4] of the same substance?
Its value is 57.3 (14.4) Percent.
